From ChEMBL document CHEMBL2169832, “Conformation-specific effects of Raf kinase inhibitors” (J Med Chem, 2012)

What was measured:
HCT-116 = assay: cells; details: Homo sapiens
A-375 = assay: cells; details: Homo sapiens
[1] = target: RAF proto-oncogene serine/threonine-protein kinase (Homo sapiens, UniProt P04049); assay: Inhibition of C-Raf
Sequence of RAF proto-oncogene serine/threonine-protein kinase (P04049 whole entry): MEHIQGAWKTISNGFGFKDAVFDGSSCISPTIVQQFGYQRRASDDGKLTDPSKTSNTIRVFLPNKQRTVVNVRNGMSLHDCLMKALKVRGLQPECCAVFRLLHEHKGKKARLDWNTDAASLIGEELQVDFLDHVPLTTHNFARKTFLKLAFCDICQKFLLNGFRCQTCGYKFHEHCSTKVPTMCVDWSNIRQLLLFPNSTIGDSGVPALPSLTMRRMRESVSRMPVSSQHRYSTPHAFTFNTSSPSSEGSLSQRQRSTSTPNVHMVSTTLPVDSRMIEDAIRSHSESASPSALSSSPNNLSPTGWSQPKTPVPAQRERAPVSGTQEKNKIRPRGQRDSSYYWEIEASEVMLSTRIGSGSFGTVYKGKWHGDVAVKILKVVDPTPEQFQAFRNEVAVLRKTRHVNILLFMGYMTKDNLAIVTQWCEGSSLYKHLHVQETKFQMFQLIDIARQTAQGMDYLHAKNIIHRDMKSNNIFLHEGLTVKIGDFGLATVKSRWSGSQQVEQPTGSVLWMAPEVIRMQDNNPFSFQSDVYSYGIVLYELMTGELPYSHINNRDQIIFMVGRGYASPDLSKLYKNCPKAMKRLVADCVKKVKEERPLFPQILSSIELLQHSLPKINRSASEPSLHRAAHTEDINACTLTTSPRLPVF

Work on `CNC(=O)c1cc(Oc2ccc(NC(=O)Nc3ccc(Cl)c(C(F)(F)F)c3)cc2)ccn1` [SORAFENIB] yielded an IC50 (HCT-116) of 2 µM and an IC50 (A-375) of 2400 nM.

Compound `CN(C)CCOc1ccc(-c2nc(-c3ccncc3)c(-c3ccc4c(c3)CC/C4=N\O)[nH]2)cc1` [SB590885] has an IC50 (HCT-116) of 4.6 µM and an IC50 (A-375) of 370 nM.

`Cc1ccc2c(Nc3ccc(Cl)cc3)nccc2c1Nc1ncccc1-c1ncnc2[nH]cnc12` gave a Ki [1] of 0.3 nM, an IC50 (HCT-116) of 0.72 µM and an IC50 (A-375) of 310 nM.

With `CCCS(=O)(=O)Nc1ccc(F)c(C(=O)c2c[nH]c3ncc(Cl)cc23)c1F` [PLX-4720] the IC50 (HCT-116) was 27 µM and the IC50 (A-375) was 500 nM.

Compound `OCCn1cc(-c2ccc3c(c2)CC/C3=N\O)c(-c2ccncc2)n1` has an IC50 (HCT-116) of over 20 µM and an IC50 (A-375) of under 500 nM.
